Measurements reported in PMC9820430, “New Affordable Methods for Large-Scale Isolation of Major Olive Secoiridoids and Systematic Comparative Study of Their Antiproliferative/Cytotoxic Effect on Multiple Cancer Cell Lines of Different Cancer Origins” (International Journal of Molecular Sciences, 2022).

What was measured:
[1] = test system: three breast cancer cell lines (MDA-MB-231, SK-BR-3 and MCF-7); test: ATP-based luminescence cell viability assay, breast panel; parameters: species or system human; conditions: Homo sapiens; MDA-MB-231, SK-BR-3 and MCF-7; 72 h
Method: The antiproliferative/cytotoxic effects of the selected OOPs on each cell line were assessed by measuring the cellular ATP levels after 72 h treatments using an ATP-based luminescence assay. This assay, initially developed as a tumor chemosensitivity assay, has shown considerable promise as a general in vitro toxicity assay due to its high sensitivity that allows the detection of a small number of cells. Consequently, it can be applied to both cancer cell lines and primary tissue cells. […] The EC50 values were calculated by nonlinear regression (curve fit) using a sigmoidal dose–response equation (Figure 2A and Figure S2).
The calculated EC50 values ranged between 9.1–100 μΜ (Table 1). The bioactivity of the oleocanthalic acid (7), studied here for the first time for its antiproliferative/cytotoxic activity, was initially evaluated systematically in the three breast cancer cell lines using a concentration range of 10–100 μM. In all cases, the viability measured was ≥80%, predicting EC50 values > 100 μΜ. […] For this reason, oleocanthalic acid (7) was excluded from the rest of this study.
The OOPs tested in this study were first dissolved in an appropriate DMSO volume such as to prepare a final stock solution of 50 mM, which was further used to prepare various compound concentrations in DMSO-based solutions. The final DMSO concentration in the cell culture was maintained constant in all treated groups of any given experiment and never exceeded the value of 0.2% (v/v). For the treatment experiments, cells were plated in 96-well culture plates, in 100 μL of complete medium at a seeding density of 5000–10,000 cells/well—depending on cells’ size and doubling time—and were allowed to adhere overnight (~16 h). The next day, 150 μL of complete medium was added to each well and the cells were treated with various concentrations of OOPs. Each concentration was tested in triplicate and was repeated 2–3 times. To prepare the final concentration solutions, 0.5 μL of a 500× stock of each tested compound in DMSO was added directly into each well in a final volume of 250 μL culture medium and was gently mixed by pipetting. Control wells were prepared under the same experimental conditions by adding only DMSO at a final concentration of 0.2% (v/v). Compounds were not renewed during the entire period of cell exposure. All cells were cultured at 37 °C in a 5% (v/v) CO2 for 24, 48 or 72 h.
Briefly, after the treatment with OOPs, the adapted medium was removed from the dish wells and the cells were washed twice with medium without FBS. Then, the C-lysis (LT27-076) was diluted in PBS (1:2) and a volume of 50 μL was added to each well. […] Cell viability was quantified by measuring luminescence using a multi-mode microplate reader Safire^2 Tecan (software Magellan V6.00 STD.2PC WIN.20000/XP).

A375 cells = test system: A375 cells; parameters: method as in PMID 35630786; conditions: 72 h treatment; cited from earlier work
A2058 = test: EdU incorporation cell proliferation assay, 24 h; assay type: cell-based, human; conditions: for % EdU +ve ± SE (S-phase cells): 24 h treatment at EC50 concentration
Method: For this purpose, ten cancer cell lines (i.e., MDA-MB 231, SK-BR-3, MCF-7, A2058, SK-MEL-28, AGS, HepG-2, PANC-1, H1299 and Hela) originating from breast, melanoma, stomach, hepatic, pancreatic, lung and cervical tumors were analyzed in parallel with control samples (i.e., the same cells treated only with 0.2% (v/v) DMSO). […] Subsequently, the treated cells were allowed to incorporate 5-ethynyl-2′-deoxyuridine (EdU) into replicating DNA according to the protocol described in detail in the Experimental Section. EdU, a thymidine analog, can be incorporated into DNA in vivo and detected later by using copper-catalyzed azide–alkyne cycloaddition (click reaction) without prior DNA denaturation. The pool of cells in the S phase can be then easily detected by fluorescence (FL) microscopy or by flow cytometry by analyzing the incorporation of EdU in replicating DNA of single cells. In this study, after EdU incorporation, the nuclei of the entire cell population were stained with Hoechst and imaged by confocal microscopy (Experimental Section). EdU-positive nuclei, marked by green FL, as well as the total number of nuclei, marked by blue FL, were enumerated by applying the Icy image analysis algorithm on the digital images acquired by confocal microscopy.
Human cancer cells were plated onto sterile glass coverslips (10-mm diameter, 5161063, ThermoFisher Scientific, Waltham, MA, USA) in 24-well tissue culture plates, at a density 5 times the density of cells seeded in 96-well plate and at a final medium volume of 500 μL. In order to obtain homogeneous plating, 250 μL of the medium was added directly to the wells already containing coverslips. Using a tip perpendicularly, coverslips were pressed in order to ensure their attachment to the bottom of the well. The cells were then seeded by adding 250 μL of single-cell suspension drop by drop following a cross path. Immediately after seeding, the plate was shaken back and forth at least ten times to achieve homogeneous plating. The cells were allowed to adhere overnight (~16 h) at 37 °C and 5% (v/v) CO2. The next day, a volume of 500 μL fresh medium was added to each well and the treatment with OOPs was initiated by adding directly to the wells 2 μL of OOPs from the 500× stock in DMSO and immediately mixed afterward by pipetting. […] Control cells were prepared under the same experimental conditions using DMSO instead of the OOPs’ solutions in DMSO at the same final concentration (0.2% (v/v) DMSO). […] Each condition was performed in duplicate. After treatment with the OOPs, live proliferating mammalian cells were labeled with 5-ethynyl-2’-deoxyuridine (EdU), a nucleoside analog of thymidine, using the Cell proliferation kit III (EdU-FM, PK-CA724-488FM, Promokine, Heidelberg, Germany). More specifically, a 20 μM EdU solution from a 10 mM stock in DMSO was prepared in a fresh culture medium. Culture supernatant was removed from treated cells to leave only 250 μL. An equal volume of 20 μM EdU solution was added and mixed with the medium to obtain a 10 μΜ EdU final concentration. The treated cells were incubated for the desired time of pulse length (2–4 h) under conditions optimal for each cell type depending on each cell line’s doubling time. Following incubation, cells were washed twice with PBS, then fixed with 4% (w/v) paraformaldehyde in PBS for 15 min at room temperature (RT), and subsequently washed twice with 3% (w/v) BSA for 5 min each time. Cells were permeabilized by incubation (20 min, RT, in the dark) with 0.5% (v/v) Triton-X 100 in PBS. Following permeabilization the cells were washed twice with 3% (w/v) BSA in PBS and incubated for 30 min with the reaction cocktail, according to the instructions of the Cell proliferation kit III (EdU-488; FM). After staining for replicating DNA, the cells were washed three times with 3% (w/v) BSA in PBS, and were then incubated (10 min, at RT) with Hoechst 33342 in PBS (1:10.000) to visualize all the nuclei. […]

Row | EC50 [1] | Structure (SMILES) | EC50 (A375 cells) | % EdU +ve ± SE (S-phase cells) (A2058) | % Inhibition ± SE of cell proliferation (A2058; 24 h at EC50, normalized with the control)
1 | 10.5 to 24.6 µM | C/C=C(/C=O)[C@@H](CC=O)CC(=O)OCCc1ccc(O)cc1 [compound 1, oleocanthal] | 67.5 ± 1.9 µM | 25.5 ± 5.3% | –
2 | 17.7 to 32.2 µM | COC(=O)C1=COC(C)[C@@H](C=O)[C@@H]1CC(=O)OCCc1ccc(O)c(O)c1 (mixture of isomers) [3a,b, oleuropein aglycone] | – | 23.7 ± 5.8% | 15.0 ± 10.3%
3 | – | C/C=C(/C=O)[C@@H](CC=O)CC(=O)OCCc1ccc(O)c(O)c1 [compound 2, oleacein] | 113 ± 4.9 µM | – | –
